The results in this text go back to patent US20230406883A1, “COMPOUNDS AND THEIR USE IN TREATMENT OF TACHYKININ RECEPTOR MEDIATED DISORDERS” (Embark Biotech ApS, priority 2020, published 2023).

What all share (test): IP3 assay (inositol trisphosphate, 3H-myoinositol) in transiently transfected COS-7 cells
Holding throughout (type): cell-based

One test concerns the target T1, hNK1R (Homo sapiens, UniProt P25103).
T1 construct: host or cells: COS-7
Particulars: COS-7 cells; for pEC50: 0.2% ovalbumin buffer; for hNK1R, IP3 Efficacy: figure legends: percent of 10^-6 M NKA. As to the method:
(§1) Agonist-induced G-protein coupled receptor (GPCR) activation was measured by an Inositol-1,4,5-Trisphosphate [^3H] Radioreceptor Assay (IPs Assay). Assays were carried out using COS-7 cells transiently transfected by calcium phosphate transfection with a vector pcDNA3.1(+) encoding one of the indicated receptors (Genscript). Briefly, DNA mixed with CaCl2 (2 M) and TE-buffer (10 mM Tris-HCl, 1 mM EDTA, pH 7.5) was dropwise added to 2×HBS (50 mM HEPES, 280 mM NaCl, 1.5 mM NaH2PO4, pH 7.2) and incubated for 45 min at room temperature (22±2° C.). The mixture and a final concentration of 100 μM Chloroquine were added to the cells and left to incubate for 5 hours at 37° C. under standard cell culture conditions (10% CO2) before changing medium to fresh medium containing 5 μl/mL Myo-[2-^3H(N)]-inositol (labelling medium).
(§2) The IP3 assay takes advantage of the tachykinin receptors' ability to induce production of the inositol trisphosphate (IP3) second messenger upon agonist (ligand) binding on receptor expressing cells following an initial ^3H-inositol labelling period. In effect this means that production of the second messenger IP3 as a measure of receptor activity can be assessed by counting ^3H-activity.
(§3) Assay solutions used: Wash buffer (HBSS), Assay buffer (HBSS+10 mM LiCl and 0,2% w/v ovalbumin), Lysis buffer (10 mM formic acid), and SPA YSI beads (12.5 mg/ml in H2O). The assay was performed the day after transfection. Briefly, labelling medium was aspirated, and plates were washed ×1 in wash buffer before adding 100 μl assay buffer, pre-incubated for 30 min followed by 120 min incubation with agonist, both at 37° C. After incubation, plates were immediately placed on ice and the incubation medium was aspirated and 40 μl of 10 mM formic acid per well was added. Plates were incubated for at least 30 min on ice. 60 μl (1 mg/well) SPA YSI beads/well was pipetted into a solid white 96 wells plate and 35 μl of the lysis solution was transferred to the plate before covering plates with seal cover and shaking for 10 min. (max speed). Centrifuge plates and leave for 8 hours at room temperature before counting the plates in a MicroBeta plate counter (Perkin Elmer).

A further test has as its target T2, hNK2R (Homo sapiens, UniProt P21452).
T2 construct: host or cells: COS-7
T2 sequence (P21452 1-398): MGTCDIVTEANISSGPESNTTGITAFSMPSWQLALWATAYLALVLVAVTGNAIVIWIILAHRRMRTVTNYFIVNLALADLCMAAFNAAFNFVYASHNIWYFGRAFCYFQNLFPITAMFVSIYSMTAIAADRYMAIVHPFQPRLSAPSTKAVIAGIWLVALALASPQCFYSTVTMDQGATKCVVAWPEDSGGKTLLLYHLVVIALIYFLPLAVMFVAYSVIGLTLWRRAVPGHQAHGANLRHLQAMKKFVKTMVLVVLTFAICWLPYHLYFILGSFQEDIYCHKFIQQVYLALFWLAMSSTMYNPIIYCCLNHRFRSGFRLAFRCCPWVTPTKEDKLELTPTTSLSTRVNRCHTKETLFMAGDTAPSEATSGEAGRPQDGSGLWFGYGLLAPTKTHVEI
Particulars: COS-7 cells; for pEC50: 0.2% ovalbumin buffer; for hNK2R, IP3 Efficacy: figure legends: percent of 10^-6 M NKA. As to the method: as §1, §2, §3

The next test deals with T3, hNK3R (Homo sapiens, UniProt P29371).
T3 construct: host or cells: COS-7
T3 sequence (P29371 1-465): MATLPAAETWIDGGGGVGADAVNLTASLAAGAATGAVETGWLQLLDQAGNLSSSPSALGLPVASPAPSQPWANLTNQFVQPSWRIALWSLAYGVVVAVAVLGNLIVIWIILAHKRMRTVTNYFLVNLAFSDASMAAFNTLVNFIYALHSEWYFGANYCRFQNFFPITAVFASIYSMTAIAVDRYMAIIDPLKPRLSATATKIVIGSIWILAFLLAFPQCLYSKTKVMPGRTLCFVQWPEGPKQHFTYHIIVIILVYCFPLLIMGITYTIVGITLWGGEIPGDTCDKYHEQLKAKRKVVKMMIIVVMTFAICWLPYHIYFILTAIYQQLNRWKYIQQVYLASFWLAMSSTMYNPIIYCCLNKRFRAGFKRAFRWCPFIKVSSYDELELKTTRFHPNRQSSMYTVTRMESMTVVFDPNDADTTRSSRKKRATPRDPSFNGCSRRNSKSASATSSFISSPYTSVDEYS
Particulars: COS-7 cells; for pEC50: 0.2% ovalbumin buffer, read-out: hNK3, IP3 EC50; for hNK3, IP3 Efficacy: figure legends: percent of 10^-6 M NKA. How it is done: as §1, §2, §3

One may read the pEC50 as −log10 of the EC50, conventionally taken in molar units.

SMILES strings stand for the structures. pEC50: −log10 of the molar value. Several values for one entry are separate records, joined by “and”; a condition that tells them apart may be missing. Identical values can stand only once. Numbered stars: 1 amine (or outer) side, 2 acyl side, 3 side chain; on linkers, the order of the positions; unused ones are H or OH. Square brackets hold non-standard residues; d marks the D form. Peptide text beside a SMILES is read from it. * marks the point of attachment. C18 diacid = O=C(O)CCCCCCCCCCCCCCCCC(=O)*; γGlu = O=C(O)[C@H](CCC(=O)[*:2])N[*:1]; mTyr = N[C@@H](Cc1cccc(O)c1)C(=O)O; NMeL = CN[C@@H](CC(C)C)C(=O)O; hSer = N[C@@H](CCO)C(=O)O; Nle = CCCC[C@H](N)C(=O)O; AEEA = NCCOCCOCC(=O)O; Aib = CC(C)(N)C(=O)O

T1 sequence (P25103 whole entry): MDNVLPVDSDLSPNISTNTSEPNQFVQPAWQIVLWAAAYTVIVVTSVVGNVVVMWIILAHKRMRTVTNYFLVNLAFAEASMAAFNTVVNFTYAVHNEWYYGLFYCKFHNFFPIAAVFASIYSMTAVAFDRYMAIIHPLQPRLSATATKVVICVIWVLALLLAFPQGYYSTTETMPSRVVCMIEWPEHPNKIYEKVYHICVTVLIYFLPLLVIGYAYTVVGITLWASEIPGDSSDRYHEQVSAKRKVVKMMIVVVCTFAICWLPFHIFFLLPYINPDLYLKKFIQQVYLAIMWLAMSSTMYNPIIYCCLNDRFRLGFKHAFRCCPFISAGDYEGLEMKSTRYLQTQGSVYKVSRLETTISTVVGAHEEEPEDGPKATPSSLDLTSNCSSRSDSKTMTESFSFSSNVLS

Turning to `CCCC[C@H](NC(=O)[C@H](CC(C)C)N(C)C(=O)CNC(=O)[C@@H](NC(=O)[C@H](Cc1ccccc1)NC(=O)[C@H](CO)NC(=O)[C@H](CC(=O)O)NC(=O)[C@@H](NC(=O)[C@H](CCCCN)NC(=O)COCCOCCNC(=O)COCCOCCNC(=O)CC[C@H](NC(=O)CCCCCCCCCCCCCCCCC(=O)O)C(=O)O)[C@@H](C)O)C(C)C)C(N)=O` [compound 312, *Lys;Thr;Asp;Ser;Phe;Val;Gly;NmLeu;Nle;NH2], on hNK1R, the negative logarithm of the EC50 (pEC50) is roughly 6.75 and the “hNK1R, IP3 Efficacy” value was 44%. At hNK2R, the negative-log EC50 (pEC50) was 7.60 and the “hNK2R, IP3 Efficacy” value is 65%. Moreover, on hNK3R, the pEC50 was 6.29 and the “hNK3, IP3 Efficacy” value turned out to be 80%.

Regarding `CCCC[C@H](NC(=O)[C@H](CC(C)C)NC(=O)C(C)(C)NC(=O)[C@@H](NC(=O)[C@H](Cc1ccccc1)NC(=O)[C@H](CCCCN)NC(=O)[C@H](CC(=O)O)NC(=O)COCCOCCNC(=O)COCCOCCNC(=O)CC[C@H](NC(=O)CCCCCCCCCCCCCCCCC(=O)O)C(=O)O)C(C)C)C(N)=O` [compound 373, *Asp;Lys;Phe;Val;Aib;Leu;Nle;NH2] ({C18 diacid-γGlu-AEEA-AEEA}-DKFV[Aib]L[Nle]-NH2), at hNK1R, the pEC50 is roughly 6.87 and the “hNK1R, IP3 Efficacy” value is 66%. Further, on hNK2R, the pEC50 is 8.37 and the “hNK2R, IP3 Efficacy” value was determined as 89%. Besides, the “hNK3, IP3 Efficacy” value on hNK3R is listed as 0%.

As to `CCCC[C@H](NC(=O)[C@H](CC(C)C)N(C)C(=O)CNC(=O)[C@@H](NC(=O)[C@H](Cc1ccccc1)NC(=O)[C@H](CCCCN)NC(=O)[C@H](CCC(=O)O)NC(=O)COCCOCCNC(=O)COCCOCCNC(=O)CC[C@H](NC(=O)CCCCCCCCCCCCCCCCC(=O)O)C(=O)O)C(C)C)C(N)=O` [compound 335, *Glu;Lys;Phe;Val;Gly;NmLeu;Nle;NH2] ({C18 diacid-γGlu-AEEA-AEEA}-EKFVG[NMeL][Nle]-NH2), on hNK1R, the pEC50 is 7.44; the “hNK1R, IP3 Efficacy” value was 70% and 72%. Besides, on hNK2R, the pEC50 was 8.80 and the “hNK2R, IP3 Efficacy” value is on record as 80%. In addition, at hNK3R, the pEC50 was 6.95 and the “hNK3, IP3 Efficacy” value amounted to 100%.

For the compound `CCCC[C@H](NC(=O)[C@H](CC(C)C)N(C)C(=O)CNC(=O)[C@@H](NC(=O)[C@H](Cc1cccc(O)c1)NC(=O)[C@H](CCCCN)NC(=O)[C@H](CC(=O)O)NC(=O)COCCOCCNC(=O)COCCOCCNC(=O)CC[C@H](NC(=O)CCCCCCCCCCCCCCCCC(=O)O)C(=O)O)C(C)C)C(N)=O` [compound 361, *Asp;Lys;3-OH-Phe;Val;Gly;NmLeu;Nle;NH2] ({C18 diacid-γGlu-AEEA-AEEA}-DK[mTyr]VG[NMeL][Nle]-NH2), on hNK1R, the negative logarithm of the EC50 (pEC50) was 6.70 and the “hNK1R, IP3 Efficacy” value was 70%. Besides, at hNK2R, the negative-log EC50 (pEC50) was 8.64 and the “hNK2R, IP3 Efficacy” value was 100%. Also, on hNK3R, the pEC50 is roughly 4.33 and the “hNK3, IP3 Efficacy” value is given as 60%.

As to `COCC[C@H](NC(=O)[C@H](CC(C)C)N(C)C(=O)CNC(=O)[C@@H](NC(=O)[C@H](Cc1ccccc1)NC(=O)[C@H](CCCCN)NC(=O)[C@H](CC(=O)O)NC(=O)COCCOCCNC(=O)COCCOCCNC(=O)CC[C@H](NC(=O)CCCCCCCCCCCCCCCCC(=O)O)C(=O)O)C(C)C)C(N)=O` [compound 384, *Asp;Lys;Phe;Val;Gly;NmLeu;Metox;NH2] ({C18 diacid-γGlu-AEEA-AEEA}-DKFVG[NMeL][hSer](Me)-NH2), on hNK1R, the pEC50 was 7.80 and the “hNK1R, IP3 Efficacy” value is reported as 80%. Moreover, on hNK2R, the negative logarithm of the EC50 (pEC50) is 9.05 and the “hNK2R, IP3 Efficacy” value came to 95%. Also, at hNK3R, the pEC50 is 8.00 and the “hNK3, IP3 Efficacy” value was found to be 85%.
